# Experimental data: article PMC9138599, “Clade-Specific Alterations within the HIV-1 Capsid Protein with Implications for Nuclear Translocation” (Biomolecules, 2022)
# pKd: −log10 of the molar value. Where two headings read alike, the source gives them in different places.
# What was measured:
# [1] = molecular target: HIV-1 CA hexamer from clade C (92BR025.8) (Human immunodeficiency virus type 1 group M subtype C, UniProt O12157, E175C/M315A/P144C/W314A); experiment: SPR binding to immobilized HIV-1 CA hexamer, clade C
# [2] = molecular target: tri-hexameric interface of CA hexamers; design: method as in PMID 34835048; conditions: RRR patch binding into tri-hexameric interface; cited from earlier work
# [3] = tested on: HIV-1 CA hexamer from clade A1 (92UG037.1); type: binding; conditions: SPR
# [4] = molecular target: HIV-1 CA hexamer from clade B (NL4-3) (Human immunodeficiency virus type 1 group M subtype B, UniProt P12493, A146C/E177C/M317A/W316A); experiment: SPR binding to immobilized HIV-1 CA hexamer, clade B
# [5] = tested on: monomeric HIV-1 CA protein, clade D (94UG114.1); experiment: In vitro CA assembly (turbidity) assay, clade D; type: biochemical; conditions: clade D CA 30 µM, 50 µM inhibitor, 3 M NaCl, first 120 s, n = 3
# Experimental: (§1) In vitro assembly of the monomeric HIV-1 CA proteins was performed using a modification of the standard CA turbidity assembly assay [62, 63, 64, 65, 66]. This assay relies upon the fact that the addition of high salt to HIV-1 CA protein causes self-assembly that can be monitored and quantified as the increase in turbidity over time, as described in Kortagere et al. [61, 67]. Briefly, 75 µL of buffer was prepared, containing a final concentration of 50 mM NaH2PO4 pH 8.0 and various concentrations (1–5 M) of NaCl to assess the optimal concentration of salt needed to initiate assembly after the addition of the purified clade variants. To initiate the assembly reaction, 25 µL of 120 µM purified capsid was added to a final CA concentration of 30 µM (including matching DMSO concentrations). In the presence of compounds, the in vitro reaction contained 50 mM NaH2PO4 pH 8.0, 30 µM CA protein, 50 µM inhibitor, 3% DMSO, and 3 M NaCl. Readings were then taken at 350 nm every 30 s for 20 min to measure the increase in turbidity over time. The OD at 350 nm over the first 2 min was then plotted and fit with a linear regression to calculate the initial velocity (AU/min) of CA assembly.
# [6] = tested on: HIV-1 CA hexamer from clade A2 (CDKTB48); type: binding; conditions: SPR
# [7] = molecular target: monomeric HIV-1 CA protein, clade B (NL4-3) (Human immunodeficiency virus type 1 group M subtype B, UniProt P12493)
# Experimental: as §1
# [8] = tested on: monomeric HIV-1 CA protein, clade A2 (CDKTB48); experiment: In vitro CA assembly (turbidity) assay, clade A2; type: biochemical; conditions: 3 M NaCl
# Experimental: as §1
# [9] = molecular target: T1, monomeric HIV-1 CA protein, clade C (92BR025.8) (Human immunodeficiency virus type 1 group M subtype C, UniProt O12157); experiment: In vitro CA assembly (turbidity) assay, clade C; type: biochemical; conditions: clade C CA 30 µM, 50 µM inhibitor, 3 M NaCl, first 120 s, n = 3
# T1 construct: hexahistidine (C); made in house; host or cells: E. coli BL21 (DE3) RIL
# Experimental: as §1
# [10] = tested on: monomeric HIV-1 CA protein, clade A1 (92UG037.1); experiment: In vitro CA assembly (turbidity) assay, clade A1; type: biochemical; conditions: 3 M NaCl
# Experimental: as §1
# [11] = tested on: HIV-1 CA hexamer from clade D (94UG114.1); type: binding; conditions: SPR
# [12] = global fit, n = 3, read-out: KD Kinetic/Global
# [13] = Langmuir isotherm equilibrium fit, 25 °C, n = 3, read-out: KD Equilibrium
# [14] = SPR, clade B (NL4.3) hexamer, 1:1 binding model, n = 3
# Sequence of HIV-1 CA hexamer from clade C (92BR025.8) (O12157 131-361 P144C/E175C/W314A/M315A): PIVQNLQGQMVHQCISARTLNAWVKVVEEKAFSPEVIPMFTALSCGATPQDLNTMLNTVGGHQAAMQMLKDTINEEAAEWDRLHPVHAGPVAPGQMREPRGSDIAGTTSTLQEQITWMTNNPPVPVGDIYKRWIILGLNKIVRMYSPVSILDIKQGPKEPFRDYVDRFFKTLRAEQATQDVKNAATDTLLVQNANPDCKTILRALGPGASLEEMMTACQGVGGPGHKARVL
# T1 sequence (O12157 131-361): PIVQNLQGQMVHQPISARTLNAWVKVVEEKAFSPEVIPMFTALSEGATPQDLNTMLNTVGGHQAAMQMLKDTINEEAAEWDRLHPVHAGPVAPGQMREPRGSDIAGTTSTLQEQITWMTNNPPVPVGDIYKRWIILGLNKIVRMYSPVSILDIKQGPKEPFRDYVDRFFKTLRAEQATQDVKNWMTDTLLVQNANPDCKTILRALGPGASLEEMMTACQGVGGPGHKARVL
compound,measurement,setting,value
CC(C)[C@H](NC(=O)CNC(=O)[C@H](CO)NC(=O)[C@@H]1CCCN1C(=O)[C@H](CO)NC(=O)[C@H](CC(N)=O)NC(=O)[C@H](CC(N)=O)NC(=O)[C@@H](N)[C@@H](C)O)C(=O)N[C@@H](Cc1ccccc1)C(=O)N[C@H](C(=O)N[C@@H](Cc1ccccc1)C(=O)NCC(=O)N[C@@H](C)C(=O)N[C@@H](CC(N)=O)C(=O)N[C@@H](CO)C(=O)N[C@@H](CO)C(=O)N[C@H](C(=O)O)[C@@H](C)O)[C@@H](C)O [NUP-153],pKd,"[1]; Langmuir isotherm equilibrium fit, n = 3, read-out: KD Equilibrium",3.30
same,pKd,[1]; [12],3.06
"RRR patch: highly positively charged RRR motif at the C-terminus of NUP-153 binding the tri-hexameric interface of CA (FSGRKIKTAVRRRK; UniProt P49790 1462-1475, looked up, fragment)",pKd,[2],6.10
PF-74,koff,"[3]; 1:1 binding model, n = 3",0.647 s⁻¹
same,kon,"[3]; 1:1 binding model, n = 3",615000 M⁻¹ s⁻¹
same,pKd,[3]; [13],6.14
same,pKd,[3]; [12],6.02
same,fold tighter binding to clade B protein compared to clade A1 protein,"[4]; SPR data, clade B vs clade A1",~ 20 fold
same,koff,[4]; [14],0.0363 s⁻¹
same,kon,[4]; [14],756000 M⁻¹ s⁻¹
same,Initial Velocity PF-74,[5],0.050 ± 0.008 AU/min
same,koff,"[6]; 1:1 binding model, n = 3",0.0916 s⁻¹
same,kon,"[6]; 1:1 binding model, n = 3",669000 M⁻¹ s⁻¹
same,pKd,[6]; [13],6.86
same,pKd,[6]; [12],6.86
same,Initial Velocity PF-74,[7],0.043 ± 0.009 AU/min
same,fold increase in assembly rate (initial velocity) vs Apo,"[8]; clade A2, 50 µM inhibitor, initial 120 s",1.3 fold
same,Initial Velocity PF-74,"[8]; clade A2 CA 30 µM, 50 µM inhibitor, first 120 s, n = 3",0.017 ± 0.002 AU/min
same,Initial Velocity PF-74,[9],0.039 ± 0.007 AU/min
same,fold increase in assembly rate (initial velocity) vs Apo,"[10]; clade A1, 50 µM inhibitor, initial 120 s",1.5 fold
same,Initial Velocity PF-74,"[10]; clade A1 CA 30 µM, 50 µM inhibitor, first 120 s, n = 3",0.034 ± 0.001 AU/min
same,koff,"[1]; 1:1 binding model, n = 3",0.0754 s⁻¹
same,kon,"[1]; 1:1 binding model, n = 3",228000 M⁻¹ s⁻¹
same,pKd,[1]; [13],6.45
same,pKd,[1]; [12],6.48
same,koff,"[11]; 1:1 binding model, n = 3",0.0395 s⁻¹
same,kon,"[11]; 1:1 binding model, n = 3",773000 M⁻¹ s⁻¹
same,pKd,[11]; [13],7.29
same,pKd,[11]; [12],7.29
